Experimental data: patent US20230310414A1
Where two headings read alike, the source gives them in different places.

Legend:
[1] = system: IRAK1, NF-κB, MAPKs, IRAK4 (MyD88); assay: MyD88 downstream signalling in human macrophages; format: cell-based
[2] = toxicity assay, VERO-E6 cells enriched for ACE-2 in the absence of virus, CellTiter-Glo; conditions: African green monkey, VERO-E6 cells enriched for ACE-2 receptor, no virus
SARS-CoV-2 = assay: cell viability (CPE) assay, VERO-E6 cells enriched for ACE-2 infected with SARS-CoV-2, CellTiter-Glo; format: cell-based; conditions: for IC50: VERO-E6 cells enriched for ACE-2 plus SARS-CoV-2; for EC50: CPE assay
VERO-E6 cells = assay: toxicity assay, VERO-E6 cells enriched for ACE-2 in the absence of virus, CellTiter-Glo; conditions: compound alone
[3] = human macrophages, through interaction with MyD88
[4] = Severe acute respiratory syndrome coronavirus 2, Vero C1008, positive controls, read-out: IC50 (μM), In Vitro Anti-SARS-CoV-2 Activity

Q: Which “NF-κB translocation into the nucleus” value [1] does the source give for `O.O=C(OC[C@H]1O[C@@H](OC(=O)c2cc(O)c(O)c(O)c2)[C@H](OC(=O)c2cc(O)c(O)c(O)c2)[C@@H](OC(=O)c2cc(O)c(O)c(O)c2)[C@@H]1OC(=O)c1cc(O)c(O)c(O)c1)c1cc(O)c(O)c(O)c1` here?
A: inhibited

Q: And the “activation of IRAK1, NF-κB, and MAPKs” value [1, 3]?
A: potently reduced

Q: And the “expression of IRAK4” value [1, 3]?
A: increasing expression

Q: Which results are given for `CCN(CC)CCCC(C)Nc1ccnc2cc(Cl)ccc12` (centres unmarked) [Chloroquine, chloroquine, reference compound]?
A: CC50 [2]: > 30 µM; IC50 (SARS-CoV-2; [4]): 3.78 µM

Q: For `CCOC(=O)[C@H]1O[C@@H]1C(=O)N[C@@H](CC(C)C)C(=O)NCCC(C)C` [E64d (aloxistatin), aloxistatin, reference compound], which CC50 [2] is on record?
A: > 30 µM

Q: And the IC50 (SARS-CoV-2; [4])?
A: 7.48 µM

Q: With `CCN(CCO)CCCC(C)Nc1ccnc2cc(Cl)ccc12` (centres unmarked) [Hydroxychloroquine, hydroxychloroquine, reference compound] as the molecule, how does the CC50 [2] read?
A: > 30 µM

Q: What about the IC50 (SARS-CoV-2; [4]) of the same molecule?
A: 3.53 µM

Q: Which CC50 [2] does the source give for `CCC(CC)COC(=O)[C@H](C)N[P@](=O)(OC[C@H]1O[C@@](C#N)(c2ccc3c(N)ncnn23)[C@H](O)[C@@H]1O)Oc1ccccc1` [Remdesivir, remdesivir, reference compound] here?
A: > 30 µM

Q: With `COc1ccc2cc1Oc1ccc(cc1)C[C@H]1c3cc(c(OC)cc3CCN1C)Oc1c(OC)c(OC)cc3c1[C@H](C2)N(C)CC3` [tetrandrine, (1S,14S)-9,20,21,25-tetramethoxy-15,30-dimethyl-7,23-dioxa-15,30-diazaheptacyclo[22.6.2.2^3,6.1^8,12.1^14,18.0^27,31.0^22,33]hexatriaconta-3(36),4,6(35),8,10,12(34),18,20,22(33),24,26,31-dodecaene] as the molecule, how does the CC50 [2] read?
A: 6.28 µM

Q: What about the EC50 (SARS-CoV-2; Severe acute respiratory syndrome coronavirus 2, Vero C1008, compound alone) of the same molecule?
A: 1250 nM

Q: And the “SI (selectivity index; CC50/EC50)” value (SARS-CoV-2; compound alone)?
A: SI: 5.02.

Q: Which results are given for “(14S,27S)-22,33-dimethoxy-13,28-dimethyl-2,5,7,20-tetraoxa-13,28-diazaoctacyclo[25.6.2.2^16,19.1^3,10.1^21,25.0^4,8.0^31,35.0^14,39]nonatri-aconta-1(33),3(39),4(8),9,16(38),17,19(37),21,23,25(36),31,34-dodecaene [cepharanthine]”?
A: CC50 (VERO-E6 cells; VERO-E6 cells enriched for ACE-2, absence of virus): 7.22 µM; CC50 (VERO-E6 cells): 7.22 µM; EC50 (SARS-CoV-2; compound alone): 510 nM; IC50 (SARS-CoV-2; compound alone, read-out: IC50): 0.51 µM
